In patent publication US9326666B2, “Multi-channel medical imaging system” (Beth Israel Deaconess Medical Center, priority 2002, dated 2016):

Tests used:
[1] = tested on: mitochondria and/or endoplasmic reticulum; experiment: Partitioning of dye into subcellular organelles; assay type: cell-based
Description: (§1) More generally, IR-786 may be used for non-radioactive imaging of areas of ischemia in the living heart, or other visualization of the viability of other tissues.

[2] = Imaging of blood flow in the heart of a living laboratory rat after thoracotomy; assay type: in vivo
Description: as §1

[3] = In vivo early half-life of dye in blood; conditions: small molecule form
Description: This permits multiple injections during a single procedure.

[4] = Solubility of dye in blood; conditions: small molecule form

| in vivo early half-life [3] | solubility in blood [4] | Compound | partitioning into mitochondria and/or endoplasmic reticulum [1] | imaging of blood flow in the heart [2] |
| --- | --- | --- | --- | --- |
| – | – | CN1C(=CC=C2CCCC(C=CC3=[N+](C)c4ccccc4C3(C)C)=C2Cl)C(C)(C)c2ccccc21.[O-][Cl+3]([O-])([O-])[O-] [IR-786] | partitions efficiently into mitochondria and/or endoplasmic reticulum in a concentration-dependent manner | successfully applied |
| shorter half-life | somewhat less soluble in blood | CC1(C)C(/C=C/C=C/C=C/C=C2\N(CCCCS(=O)(=O)O)c3ccc4ccccc4c3C2(C)C)=[N+](CCCCS(=O)(=O)[O-])c2ccc3ccccc3c21 [Indocyanine green, indocyanine green] | – | – |
